“And” between values parts separate entries of the source, which are not always exact repeats. Equal entries are not always repeated. Where two headings read alike, the source gives them in different places.
Assays:
Type in all cases: physicochemical
[1] = Fluorescence emission spectra in acetonitrile; conditions: Emission maxima in acetonitrile
Procedure: (§1) All starting materials and reagents were analytical grade, purchased from Aldrich and used without further purification. The organic solvents were dried over appropriate drying agents and distilled prior to use. UV-Vis absorption spectra were recorded on the Thermo Electron Spectrophotometer Corporation, model Nicolet Evolution 300, using acetonitrile (CH3CN) as solvent. Fluorescence spectra were recorded on a PerkinElmer Model LS 55 spectrophotometer. FTMS-ESI mass spectra were obtained on an Thermo Scientific Q Exactive Orbitrap Mass Spectrometer. Nuclear magnetic resonance (NMR) spectra were recorded at 400 MHz for ^1H NMR and at 100 MHz for ^13C NMR, on a Brucker Advance III spectrometer. For NMR spectra, deuterated chloroform (CDCl3) was used as solvent. The chemical shift (π) in ppm; coupling constants (J); relative intensity is indicated by the number of protons (H); multiplicities are indicated by singlet (s), doublet (d), double-doublet (dd), triplet (t), quadruple (q) and multiplet (m); coupling constants are given in Hertz (Hz).
as §1, with “400MHz” for “400 MHz”, “100MHz” for “at 100 MHz”, “^13C,” for “^13C NMR,”, “(CDCl3) or deuterated methanol (CD3OD)” for “(CDCl3)”, “(δ)” for “(π)”

[2] = UV-Vis absorption spectra in acetonitrile; conditions: for λabs: Absorption maxima in acetonitrile
Procedure: as §1
as §1, with “400MHz” for “400 MHz”, “100MHz” for “at 100 MHz”, “^13C,” for “^13C NMR,”, “(CDCl3) or deuterated methanol (CD3OD)” for “(CDCl3)”, “(δ)” for “(π)”

[3] = Fluorescence quantum yield in ethanol against 7-diethylamino-4-methylcoumarin as standard
[4] = Molar extinction coefficient at longest wavelength transition
[5] = Fluorescence quantum yield in ethanol, standard 7-diethylamino-4-methylcoumarin (ΦF = 0.73 in ethanol)
[6] = Molar extinction coefficient at longest wavelength transition (Table 5)

bathochromic shift ([2]; compared with its precursor (2)) | SMILES | λem [1] [nm] | λabs [2] [nm] | ε [2, 4] [cm^-1M^-1] | ΦF [3, 5] | ε [2, 6] [cm^-1m^-1] | bathochromic shift ([2]; compared with its precursor (1)) [nm] | visible shoulder (lowest energy S0 → S1 transition) ([2]; experimental absorption spectrum) | ΦF [3]
 | CCN(CC)c1ccc2c(c1)OC(=C(C#N)C#N)C=C2/C=C/c1ccc(OCCCCCC(=O)ON2C(=O)CCC2=O)cc1 [Compound 9, (E)-2,5-dioxopyrrolidin-1-yl 6-(4-(2-(2-(dicyanomethylene)-7-(diethylamino)-2Hchromen-4-yl)vinyl)phenoxy)hexanoate] | 597 | 523 | 24000 | 0.29 |  |  |  | 
 | CCN(CC)c1ccc2c(/C=C/c3ccc(OCCCCCC(=O)O)cc3)cc(=[N+]3CCCCC3)oc2c1.O=[N+]([O-])[O-] [Compound 15, (E)-1-(4-(4-((5-carboxypentyl)oxy)styryl)-7-(diethylamino)-2H-chromen-2ylidene)piperidin-1-ium nitrate] | 578 | 406 |  | 0.90 | 30000 |  |  | 
 | CCN(CC)c1ccc2c(c1)OC(=C(C#N)C#N)C=C2/C=C/c1ccc(OC)cc1 [Compound 7, (E)-2-(7-(diethylamino)-4-(4-methoxystyryl)-2H-chromen-2-ylidene)malononitrile] | 602 | 522 | 24000 | 0.20 |  |  |  | 
 | CCN(CC)c1ccc2c(/C=C/c3ccc(OC)cc3)cc(=[N+]3CCCCC3)oc2c1.O=[N+]([O-])[O-] [Compound 14, (E)-1-(7-(diethylamino)-4-(4-methoxystyryl)-2H-chromen-2-ylidene)piperidin-1-ium nitrate] | 578 | 410 |  |  | 30000 |  |  | 
 | CCN(CC)c1ccc2c(/C=C/c3ccc(N(C)C)cc3)cc(=[N+]3CCCCC3)oc2c1.O=[N+]([O-])[O-] [Compound 13, (E)-1-(7-(diethylamino)-4-(4-(dimethylamino)styryl)-2H-chromen-2ylidene)piperidin-1-ium nitrate] | 608 | 485 | 39000 |  | 39000 |  |  | 
 | CCN(CC)c1ccc2c(C)cc(=[N+]3CCCCC3)oc2c1.O=[N+]([O-])[O-] [Compound 10, 1-(7-(diethylamino)-4-methyl-2H-chromen-2-ylidene)-piperidin-1-ium nitrate] | 490 | 437 |  | 0.14 | 21000 | > 66 |  | 
 | CCN(CC)c1ccc2c(C)cc(=O)oc2c1 [Compound 1, 7-diethylamino-4-methylcoumarin, reference compound] | 434 | 371 | 22910 | 0.73 | 22910 |  |  | 
 | CCN(CC)c1ccc2c(c1)OC(=C(C#N)C#N)C=C2/C=C/c1ccc(N(C)C)cc1 [Compound 6, (E)-2-(7-(diethylamino)-4-(4-(dimethylamine)styryl)-2H-chromen-2ylidene)malononitrile] | 597 | 496 | 34000 |  |  |  | around 536 nm | 0.95 and 0.98
 | CCN(CC)c1ccc2c(c1)OC(=C(C#N)C#N)C=C2/C=C/c1ccc(OCCCCCC(=O)O)cc1 [Compound 8, (E)-6-(4-(2-(2-(dicyanomethylene)-7-(diethylamino)-2H-chromen-4yl)vinyl)phenoxy)hexanoic acid] | 596 | 519 | 24000 | 0.28 |  |  |  | 
 | CCN(CC)c1ccc2c(/C=C/c3ccc(C(=O)OC)cc3)cc(=[N+]3CCCCC3)oc2c1.O=[N+]([O-])[O-] [Compound 11, (E)-1-(7-(diethylamino)-4-(4-(methoxycarbonyl)styryl)-2H-chromen-2ylidene)piperidin-1-ium nitrate] | 609 | 484 | 18000 | 0.08 | 18000 |  |  | 
 | CCN(CC)c1ccc2c(/C=C/c3ccc(OCCCCCC(=O)ON4C(=O)CCC4=O)cc3)cc(=[N+]3CCCCC3)oc2c1.O=[N+]([O-])[O-] [Compound 16, (E)-1-(7-(diethylamino)-4-(4-((6-((2,5-dioxopyrrolidin-1-yl)oxy)-6oxohexyl)oxy)styryl)-2H-chromen-2-ylidene)piperidin-1-ium nitrate] | 577 | 404 |  | 0.92 | 30000 |  |  | 
 | CCN(CC)c1ccc2c(c1)OC(=C(C#N)C#N)C=C2/C=C/c1ccccc1 [Compound 5] | 603 | 516 | 17000 | 0.16 |  |  |  | 
more than 100 nm | CCN(CC)c1ccc2c(c1)OC(=C(C#N)C#N)C=C2C [Compound 3, 2-(7-(diethylamino)-4-methyl-2H-chromen-2-ylidene)malononitrile] | 519 | 477 | 38000 | 0.05 |  |  |  | 
 | CCN(CC)c1ccc2c(c1)OC(=C(C#N)C#N)C=C2/C=C/c1ccc(C(=O)OC)cc1 [Compound 4] | 620 | 520 | 19000 | 0.04 and 0.08 |  |  |  | 
 | CCN(CC)c1ccc2c(/C=C/c3ccccc3)cc(=[N+]3CCCCC3)oc2c1.O=[N+]([O-])[O-] [Compound 12, (E)-1-(7-(diethylamino)-4-styryl-2H-chromen-2-ylidene)-piperidin-1-ium nitrate] | 525 | 467 |  | 0.34 | 17000 |  |  | 
